From EP0308983A2, “NMR imaging with Mn(II) coordination compositions” (priority 1987, dated 1989)
Values joined by “and” are separate entries in the source; they are usually repeats but may differ in a detail not shown here. Equal entries are not always repeated. Where two headings read alike, the source gives them in different places.

How the values were obtained:
[1] = Dose needed to lower blood or plasma T₁ to 200 msec at 0.15 T
[2] = tested on: test population of animals; conditions: for LD₅₀: Table A, species and unit not given; for Safety Factor: in vivo
[3] = Paramagnetic relaxation properties in water at 10 MHz (0.15T), RADX spin analyzer; assay type: physicochemical; conditions: 10 MHz (0.15T); for spin-lattice (T₁) relaxation value / spin-spin (T₂) relaxation value: 37°C, triplicate, mean +/- SD; for millimolar relaxivity for T₁ / millimolar relaxivity for T₂: in water; for millimolar relaxivity for T₁: calculated from T₁ and concentration; for millimolar relaxivity for T₂: calculated from T₂ and concentration
Method: The paramagnetic relaxation properties of [manganese(II)·(H₂O)₂·(L-alanine)₂]⁺²(Cl₂)⁻² in water were measured at 10 MHz (0.15T) with a spin analyzer (RADX; Houston, TX) at 37°C. After thermal equilibrium, the spin-lattice (T₁) and spin-spin (T₂) relaxation values were measured in triplicate.
The paramagnetic relaxation of the title compound in water was measured at 10 MHz (0.15T) with a spin analyzer (RADX; Houston, TX). After thermal equilibrium, the spin-lattice (T₁) and spin-spin (T₂) relaxation values were measured.
Relaxivity was measured at 10 MHz (0.15T) as described in Example 10.
The relaxivity of the title compound was performed at 0.15 T (10 MHz) with a RADX Spin Analyzer (Houston, TX) at 37°C.

[4] = Paramagnetic relaxation properties in human plasma at 37°C; assay type: physicochemical; conditions: for T₂ value / T₁ value / R₁ / R₂ / T₁ changed by (repeat measurement) / T₂ changed by (repeat measurement): 37°C; for T₁ value: triplicate; for T₁ changed by (repeat measurement) / T₂ changed by (repeat measurement): repeat measurement 80 minutes later; for T₂ relaxivity in plasma, fold greater than GdDTPA: versus GdDTPA; for T₁ relaxivity in plasma, fold greater than GdDTPA: versus gadolinium diethylenetriaminepentaacetic acid chelate (GdDTPA)
[5] = Plasma clearance: plasma T₁ and T₂ times after injection; assay type: in vivo; conditions: rabbit, 0.1 mmole/kg; for plasma T₁ / plasma T₂: 0.15 T
Method: A dose of 0.1 mmole/kg of GdDTPA was injected into a rabbit and blood samples were drawn at 10 min intervals for 50 min. The blood was centrifuged, and the plasma T₁ and T₂ times were measured at 0.15 T with a RADX PROTON SPIN ANALYZER (Houston, TX).

[6] = Method: Three buffers were tested for suitability.
One part of the solution of the title compound, synthesized according to Example 35, was added to one part of a US National Bureau of Standard buffer solution for pH 4.0 (American Scientific Products; Phthalate reference buffer).

[7] = dose needed to lower T₁ from 1500 to 200 msec at 0.15 T, unit not given
[8] = one part + one part carbonate pH reference buffer pH 10.0, the pH was 10.45
[9] = one part + one part phosphate pH reference buffer pH 7.0, the pH was 7.63
[10] = one part solution + one part phthalate reference buffer pH 4.0, the pH was 4.69

Compound | millimolar relaxivity for T₁ [3] [mM⁻¹ s⁻¹] | millimolar relaxivity for T₂ [3] [mM⁻¹ s⁻¹] | R₁ [4] [mM⁻¹ s⁻¹] | R₂ [4] [mM⁻¹ s⁻¹] | T₁ changed by (repeat measurement) [4] | T₂ changed by (repeat measurement) [4] [%] | T₂ relaxivity in plasma, fold greater than GdDTPA [4] [fold] | T₁ relaxivity in plasma, fold greater than GdDTPA [4] [fold] | other results
CC(=O)[O-].CC(=O)[O-].NCC(=O)O.NCC(=O)O.[Mn+2] [Mn(acetate)₂-bis-glycine] | – | – | – | – | – | – | – | – | Plasma Dose, T₁ = 200 [1]: 0.10; LD₅₀ [2]: 0.7; Safety Factor [2]: 70
MnEDTA [reference compound] | – | – | – | – | – | – | – | – | Plasma Dose, T₁ = 200 [1, 7]: 0.13; LD₅₀ [2]: 5.0; Safety Factor [2]: 38
N[C@@H](CS)C(=O)O.N[C@@H](CS)C(=O)O.O.O.[Cl-].[Cl-].[Mn+2] [Manganese(II)·(H₂O)₂·(L-cysteine)₂]⁺²(Cl₂)⁻²] | 9.82 | 41.2 | 44.0 | 57.2 | 4% | 1 | 11.9 | 9.2 | spin-lattice (T₁) relaxation value ([3]; 0.97 mM solution in water): 105 ± 4 ms; spin-spin (T₂) relaxation value ([3]; 0.97 mM solution in water): 25 ± 1 ms; T₂ value ([4]; 92 µM final concentration): 190 ± 17 ms; T₁ value ([4]; 92 µM final concentration): 247 ± 14 ms
C[C@H](N)C(=O)O.C[C@H](N)C(=O)O.O.O.[Cl-].[Cl-].[Mn+2] [[Manganese(II)·(H₂O)₂·(L-alanine)₂]⁺²(Cl₂)⁻²] | 9.81 | 39.3 | 44.7 | 56.9 | 3% | 1 | 11.9 | 9.3 | spin-lattice (T₁) relaxation value ([3]; 0.99 mM solution in water): 104 ± 9 ms; spin-spin (T₂) relaxation value ([3]; 0.99 mM solution in water): 26 ± 1 ms; T₂ value ([4]; 94 µM final concentration): 187 ± 3 ms; T₁ value ([4]; 94 µM final concentration): 238 ± 11 ms
N=C(N)NCCC[C@H](N)C(=O)O.N=C(N)NCCC[C@H](N)C(=O)O.O.O.[Cl-].[Cl-].[Mn+2] [[Manganese(II)·(H₂O)₂·(L-arginine)₂]⁺²(Cl₂)⁻²] | 2.96 | 10.6 | 24.8 | 37.9 | 8% | 22 | 7.9 | 5.2 | spin-lattice (T₁) relaxation value ([3]; 0.97 mM solution in water): 348 ± 7 ms; spin-spin (T₂) relaxation value ([3]; 0.97 mM solution in water): 97 ± 4 ms; T₂ value ([4]; 92 µM final concentration): 287 ± 11 ms; T₁ value ([4]; 92 µM final concentration): 439 ± 27 ms
N[C@@H](CO)C(=O)O.N[C@@H](CO)C(=O)O.O.O.[Cl-].[Cl-].[Mn+2] [Manganese(II)·(H₂O)₂·(L-serine)₂]⁺²(Cl₂)⁻²] | 9.19 | 37.8 | 45.2 | 56.9 | 3% | 2 | 11.9 | 9.4 | spin-lattice (T₁) relaxation value ([3]; 0.989 mM solution in water): 111 ± 2 ms; spin-spin (T₂) relaxation value ([3]; 0.989 mM solution in water): 27 ± 1 ms; T₂ value ([4]; 93 µM final concentration): 189 ± 6 ms; T₁ value ([4]; 93 µM final concentration): 238 ± 9 ms
N[C@@H](CC(=O)O)C(=O)O.N[C@@H](CC(=O)O)C(=O)O.O.O.[Cl-].[Cl-].[Mn+2] [Manganese(II)·(H₂O)₂·(L-aspartic acid)₂]⁺²(Cl₂)⁻²] | 9.58 | 39.7 | 46.3 | 61.2 | did not change | 3 | 12.8 | 9.7 | spin-lattice (T₁) relaxation value ([3]; 0.90 mM solution in water): 116 ± 3 ms; spin-spin (T₂) relaxation value ([3]; 0.90 mM solution in water): 28 ± 1 ms; T₂ value ([4]; 86 µM final concentration): 190 ± 12 ms; T₁ value ([4]; 86 µM final concentration): 251 ± 12 ms
Manganese chloride [MnCl₂] | – | – | – | – | – | – | – | – | Plasma Dose, T₁ = 200 [1, 7]: 0.01
O.O.O=C(O)[C@@H]1CCCN1.O=C(O)[C@@H]1CCCN1.[Cl-].[Cl-].[Mn+2] [Manganese(II)·(H₂O)₂·(L-proline)₂]⁺²(Cl₂)⁻²] | 9.63 | 39.3 | 46.5 | 53.2 | 5% | 12 | 11.1 | 9.7 | spin-lattice (T₁) relaxation value ([3]; 0.98 mM solution in water): 106 ± 4 ms; spin-spin (T₂) relaxation value ([3]; 0.98 mM solution in water): 26 ± 2 ms; T₂ value ([4]; 93 µM final concentration): 202 ± 12 ms; T₁ value ([4]; 93 µM final concentration): 234 ± 12 ms
O=C([O-])CN(CCN(CC(=O)[O-])CC(=O)O)CCN(CC(=O)[O-])CC(=O)O.[Gd+3] [GdDTPA, gadolinium diethylenetriaminepentaacetic acid chelate, reference compound] | – | – | – | – | – | – | – | – | time for which the plasma T₁ was maintained below 300 [5]: 10 min; plasma T₁ ([5]; 0 min (baseline)): 1380 ms; plasma T₂ ([5]; 0 min (baseline)): 588 ms; plasma T₁ ([5]; 10 min): 259 ms and 269 ms; plasma T₂ ([5]; 10 min): 245 ms; plasma T₁ ([5]; 20 min): 349 ms; plasma T₂ ([5]; 20 min): 287 ms; plasma T₁ ([5]; 30 min): 348 ms; plasma T₂ ([5]; 30 min): 283 ms; plasma T₁ ([5]; 40 min): 352 ms; plasma T₂ ([5]; 40 min): 270 ms; plasma T₁ ([5]; 50 min): 340 ms; plasma T₂ ([5]; 50 min): 298 ms
CC(=O)[O-].CC(=O)[O-].NCC(=O)O.NCC(=O)O.O.O.[Mn+2] [[Manganese(II)·(H₂O)₂·(Glycine)₂]Diacetate] | – | – | – | – | – | – | – | – | Relaxivity (mM⁻¹sec⁻¹) Spin-Lattice ([3]; 1 mM solution in water): 8.40 mM⁻¹ s⁻¹; Relaxivity (mM⁻¹sec⁻¹) Spin-Spin ([3]; 1 mM solution in water): 34.5 mM⁻¹ s⁻¹; appearance of the solution [6, 8]: remained clear; change of relaxivity over a 12 hour time period [6, 8]: the relaxivity did not change; appearance of the solution [6, 9]: remained clear; change of relaxivity over a 12 hour time period [6, 9]: the relaxivity did not change; appearance of the solution [6, 10]: remained clear; change of relaxivity over a 12 hour time period [6, 10]: the relaxivity did not change
CSCC[C@H](N)C(=O)O.CSCC[C@H](N)C(=O)O.O.O.[Cl-].[Cl-].[Mn+2] [Manganese(II)·(H₂O)₂·(L-methionine)₂]⁺²(Cl₂)⁻²] | 9.73 | 38.2 | 42.3 | 52.8 | 1% | 5 | 11.2 | 8.8 | spin-lattice (T₁) relaxation value ([3]; 0.97 mM solution in water): 106 ± 2 ms; spin-spin (T₂) relaxation value ([3]; 0.97 mM solution in water): 27 ± 1 ms; T₂ value ([4]; 92 µM final concentration): 202 ± 9 ms; T₁ value ([4]; 92 µM final concentration): 257 ± 18 ms
C[NH2+]CC(=O)[O-].C[NH2+]CC(=O)[O-].O.O.[Cl-].[Cl-].[Mn+2] [Manganese(II)·(H₂O)₂·(L-sarcosine)₂]⁺²(Cl₂)⁻²] | 9.19 | 39.3 | 46.4 | 55.4 | 6% | 4 | 11.5 | 9.7 | spin-lattice (T₁) relaxation value ([3]; 0.98 mM solution in water): 111 ± 2 ms; spin-spin (T₂) relaxation value ([3]; 0.98 mM solution in water): 26 ± 1 ms; T₂ value ([4]; 93 µM final concentration): 194 ± 16 ms; T₁ value ([4]; 93 µM final concentration): 232 ± 2 ms
